Data as given in patent publication US11401243B2, “Quinoline derived small molecule inhibitors of nicotinamide N-methyltransferase (NNMT) and uses thereof” (priority 2017, dated 2022).
Entries after “also recorded” stand apart in the source; their conditions may differ. Like-named read-outs stand apart in the source and are kept apart here.

How the values were obtained:
[1] = target: recombinant human PRMT3 enzyme (Homo sapiens, UniProt O60678); experiment: PRMT3 activity assay (radiometric); assay type: biochemical; details: 10 nM to 200 μM (1,8-diMQ) or 600 μM (5-amino-1MQ)
From the text: Test compounds were screened in biochemical assays for activity against three structurally similar methyltransferases, including catechol-O-methyltransferase (COMT), DNA (cytosine-5)-methyltransferase 1 (DNMT1), and protein arginine methyltransferase 3 (PRMT3). Additional biochemical assays were used to test the ability of compounds to inhibit nicotinamide phosphoribosyl transferase (NAMPT) and NAD+-dependent protein deacetylase sirtuin 1 (SIRT1), two enzymes in the NAD+ biosynthesis/salvage pathway. All assays were performed by Reaction Biology Corporation (RBC; Malvern, Pa., USA) and complete assay details are noted below. For each test compound, IC50 values were calculated from dose-response curves established with 10 concentrations of a half-log dilution series. For each assay, established enzyme specific inhibitors were included as positive controls for enzyme function and assay reproducibility. IC50 values were determined by non-linear least-squares fitting of a 4-parameter dose-response curve to collected data points (Graphpad Prism 7.0; La Jolla, Calif., USA).
PRMT3 activity assay. […] The analogues, 1,8-diMQ and 5-amino-1MQ were tested at concentrations from 200 μM-10 nM and 600 μM-10 nM, respectively. Reactions were performed with 5 μM histone H3 (histone L-arginine) substrate, 1 μM radiolabeled S-adenosyl-L-[methyl-3H]methionine (SAM) co-substrate, and recombinant human PRMT3 enzyme. Activity was monitored via quantification of radiolabeled reaction product histone [methyl-3H]-L-arginine.

[2] = target: T1, recombinant human COMT enzyme (Homo sapiens, UniProt P21964); experiment: COMT activity assay (radiometric); assay type: biochemical; details: maximal tested concentration 200 μM
T1 construct: Reaction Biology Corporation (ran the assay)
T1 sequence (P21964 1-271): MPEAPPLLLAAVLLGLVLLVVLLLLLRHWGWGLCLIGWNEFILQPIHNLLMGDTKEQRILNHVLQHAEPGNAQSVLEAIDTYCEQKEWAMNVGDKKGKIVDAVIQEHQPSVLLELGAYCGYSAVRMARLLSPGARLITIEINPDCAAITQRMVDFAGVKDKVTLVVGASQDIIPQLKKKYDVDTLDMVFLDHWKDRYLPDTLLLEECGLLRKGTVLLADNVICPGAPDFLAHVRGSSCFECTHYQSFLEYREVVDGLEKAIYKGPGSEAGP

human NNMT (mt-hNNMT) [3] = target: T2, human NNMT (mt-hNNMT) (Homo sapiens, UniProt P40261, E101A/E103A/K100A); experiment: NNMT activity assay (HPLC-UV detection of MNA), NNMT IC50 curves; details: NNMT Inhibition IC50, mean ± SD of duplicate or triplicate measurements; NI = no observable inhibition
T2 sequence (P40261 1-261 K100A/E101A/E103A limits assumed): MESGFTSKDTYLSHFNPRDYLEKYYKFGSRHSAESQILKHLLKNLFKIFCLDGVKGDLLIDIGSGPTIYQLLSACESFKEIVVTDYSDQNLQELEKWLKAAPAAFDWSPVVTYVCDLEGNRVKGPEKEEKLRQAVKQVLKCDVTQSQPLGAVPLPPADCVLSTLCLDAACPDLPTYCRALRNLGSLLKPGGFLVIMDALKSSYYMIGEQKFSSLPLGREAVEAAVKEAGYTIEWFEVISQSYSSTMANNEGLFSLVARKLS

[4] = target: recombinant human DNMT1 enzyme (Homo sapiens, UniProt P26358); experiment: DNMT1 activity assay (radiometric); assay type: biochemical
[5] = Bi-directional permeability assay with Caco-2 cells; details: human, Caco-2, pH 7.4
Caco-2 cells = experiment: as above
[6] = Parallel artificial membrane permeability assay (PAMPA); assay type: in vitro ADME; details: for Papp at 4 h, 400 μM: 400 μM in PBS, room temperature, read-out: Flux; for Permeability Classification (passive transport): BCS classification
Description: Samples were tested in triplicates in three separate experiments.

[7] = tested on: NNMT activity in 3T3-L1 pre-adipocytes and differentiated adipocytes; experiment: Quantitative measurement of NNMT reaction product 1-MNA in cultured cells (LC/MS/MS); assay type: cell-based; details: 10 μM, 24 h
Description: Differentiation of 3T3-L1 pre-adipocytes. […] Briefly, standard culture media was supplemented with scheduled addition of adipogenic agents [3-isobutyl-1methyl xanthine (IBMX), Sigma Aldrich; MO, USA), dexamethasone (Sigma Aldrich; MO, USA), insulin (Gibco Life Technologies Inc.; Grand Island, N.Y., USA)] over 10 days to promote differentiation of 3T3-L1 fibroblasts into adipocytes; a combination of 1 mM IBMX, 1 μM dexamethasone, and 10 μg/ml of insulin in media were added to fully confluent 3T3-L1 fibroblasts for three days (days 0-3) to initiate differentiation. At day 3, the media was replaced with culture media supplemented with insulin (10 μg/ml). After day 6, cells were maintained in culture media until described experiments were begun (days 8-10).
Cellular 1-MNA concentrations were determined using an ultra-sensitive high-resolution AB Sciex 6500 Q-trap mass spectrometer coupled to an Agilent 1260 ultra-high pressure liquid chromatography (LC/MS/MS) system. Using multiple reaction monitoring (MRM) positive ion mode, the 1-MNA NNMT reaction product was quantified from peak area ratios using AB Sciex Analyst and MultiQuant 2.1 software and the parent precursor and Q3 masses set to m/z 137.1 and 94.1, respectively. Fragment ions at m/z of 92.1 and 77.9 were additionally used for the detection and confirmation of 1-MNA, respectively. […]. To determine the effect of NNMT inhibitor on NNMT activity in the pre-adipocytes and differentiated adipocytes (8×10^4 cells/well seeded prior to beginning differentiation), cells were treated with 30 μM inhibitor for 24 h. Similarly, to compare the relative effects of multiple NNMT inhibitors on NNMT activity in cultured adipocytes, differentiated adipocytes in 6-well plates were treated with 10 μM test compound for 24 h. Following treatment, media was replaced with 80% (v/v) methanol (cooled to −80° C.) containing 500 nmol 6-chloronicotinamide (6-CN) as an internal standard (IS) to extract cellular metabolites. Adherent cells were scrapped, then centrifuged at 4° C. and 13000 g for 15 min, and the resulting supernatants processed using established protocols. […]. Data were subsequently normalized to the IS peak area and transformed as % control values for cross-sample comparisons. […] Choice of inhibitor concentrations and time period was chosen based on the results from the MTT studies.

human NNMT (mt-hNNMT) [8] = target: T2, human NNMT (mt-hNNMT); details: values from applicant's published SAR study; read-out: IC50 (NNMT inhibition); cited from earlier work

Chain of recombinant human DNMT1 enzyme (P26358 whole entry): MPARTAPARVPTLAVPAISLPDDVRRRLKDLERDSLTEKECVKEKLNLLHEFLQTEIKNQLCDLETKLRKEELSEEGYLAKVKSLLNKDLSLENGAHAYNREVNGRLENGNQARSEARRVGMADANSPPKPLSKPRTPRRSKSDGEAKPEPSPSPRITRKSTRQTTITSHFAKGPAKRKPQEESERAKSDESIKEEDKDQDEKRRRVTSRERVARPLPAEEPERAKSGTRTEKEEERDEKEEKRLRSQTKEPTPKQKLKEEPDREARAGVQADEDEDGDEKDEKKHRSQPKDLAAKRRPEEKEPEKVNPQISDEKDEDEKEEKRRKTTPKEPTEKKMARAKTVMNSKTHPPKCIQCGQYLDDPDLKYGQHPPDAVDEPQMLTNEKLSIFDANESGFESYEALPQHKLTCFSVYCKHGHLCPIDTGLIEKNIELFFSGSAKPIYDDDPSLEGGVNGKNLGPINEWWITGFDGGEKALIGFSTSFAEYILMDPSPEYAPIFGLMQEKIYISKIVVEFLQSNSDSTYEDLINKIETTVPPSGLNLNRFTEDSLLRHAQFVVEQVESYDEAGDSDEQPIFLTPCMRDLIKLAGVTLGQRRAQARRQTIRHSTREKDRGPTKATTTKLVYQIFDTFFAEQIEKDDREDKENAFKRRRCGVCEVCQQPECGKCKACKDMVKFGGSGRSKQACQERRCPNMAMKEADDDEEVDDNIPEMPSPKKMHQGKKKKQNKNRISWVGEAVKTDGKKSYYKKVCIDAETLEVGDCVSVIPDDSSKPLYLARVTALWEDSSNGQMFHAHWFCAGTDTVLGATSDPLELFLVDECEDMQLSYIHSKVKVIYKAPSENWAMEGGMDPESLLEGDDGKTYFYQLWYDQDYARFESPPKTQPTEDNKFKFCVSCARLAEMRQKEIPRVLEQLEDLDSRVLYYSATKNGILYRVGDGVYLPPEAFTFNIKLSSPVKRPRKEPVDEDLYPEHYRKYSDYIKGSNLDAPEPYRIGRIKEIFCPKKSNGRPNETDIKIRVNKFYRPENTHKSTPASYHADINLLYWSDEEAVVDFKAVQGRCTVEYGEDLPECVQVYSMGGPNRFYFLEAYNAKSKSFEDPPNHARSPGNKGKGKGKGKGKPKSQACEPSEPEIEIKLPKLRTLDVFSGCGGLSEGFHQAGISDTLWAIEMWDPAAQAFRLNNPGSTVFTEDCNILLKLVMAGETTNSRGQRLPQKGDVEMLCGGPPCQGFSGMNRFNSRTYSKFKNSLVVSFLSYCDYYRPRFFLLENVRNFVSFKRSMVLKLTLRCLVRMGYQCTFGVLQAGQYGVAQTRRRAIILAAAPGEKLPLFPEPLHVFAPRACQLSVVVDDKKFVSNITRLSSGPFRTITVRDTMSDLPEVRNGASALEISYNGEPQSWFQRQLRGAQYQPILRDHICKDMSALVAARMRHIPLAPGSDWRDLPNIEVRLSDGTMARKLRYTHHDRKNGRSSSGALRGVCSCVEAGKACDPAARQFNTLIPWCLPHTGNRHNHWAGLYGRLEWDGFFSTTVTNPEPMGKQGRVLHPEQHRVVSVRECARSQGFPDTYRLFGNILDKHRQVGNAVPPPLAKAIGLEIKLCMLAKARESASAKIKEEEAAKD
Chain of recombinant human PRMT3 enzyme (O60678 whole entry): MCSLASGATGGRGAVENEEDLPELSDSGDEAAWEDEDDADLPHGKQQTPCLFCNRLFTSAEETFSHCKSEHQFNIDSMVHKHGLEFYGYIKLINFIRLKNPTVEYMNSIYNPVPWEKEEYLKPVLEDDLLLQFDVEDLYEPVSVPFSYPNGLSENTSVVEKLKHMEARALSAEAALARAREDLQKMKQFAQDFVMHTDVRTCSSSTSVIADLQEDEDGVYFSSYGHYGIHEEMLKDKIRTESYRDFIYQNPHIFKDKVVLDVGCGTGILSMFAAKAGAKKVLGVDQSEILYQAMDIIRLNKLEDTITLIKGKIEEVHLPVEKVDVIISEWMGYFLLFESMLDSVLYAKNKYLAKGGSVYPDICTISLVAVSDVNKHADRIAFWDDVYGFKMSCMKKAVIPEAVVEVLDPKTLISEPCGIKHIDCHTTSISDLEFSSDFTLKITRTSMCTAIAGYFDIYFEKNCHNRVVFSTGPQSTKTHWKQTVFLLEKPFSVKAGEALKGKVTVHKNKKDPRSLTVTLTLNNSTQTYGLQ

Row | Compound | inhibition of PRMT3 (in words) [1] | inhibition at 200 µM [2] [%] | IC50 (human NNMT (mt-hNNMT) [3]) [µM] | inhibition of DNMT1 (in words) ([4]; 10 nM to 200 μM (1,8-diMQ) or 600 μM (5-amino-1MQ)) | IC50 ([4]; read-out: IC50, DNA (cytosine-5)-methyltransferase 1, NI: no inhibition) [µM] | Papp B→A at 2 h, 10 μM [5] [×10⁻⁶ cm/s] | Mean A→B Papp (Caco-2 cells; Caco-2, 10 μM, 2 h, pH 7.4, BLQ = no peak detected in receiver side) | Classification (active transport / efflux) (Caco-2 cells; Caco-2, listed as 1,8-diMQ) | Papp at 4 h, 400 μM [6] [×10⁻⁶ cm/s] | Permeability Classification (passive transport) ([6]; listed as 1,8-diMQ) | 1-MNA levels in differentiated adipocytes relative to control [7] | IC50 (human NNMT (mt-hNNMT) [8]) [µM] | Permeability Classification (passive transport) [6]
1 | Cc1cccc2ccc[n+](C)c12 [1q] | did not inhibit | 20 | 1.8 ± 0.5 | did not inhibit | > 200 | 1.78 | BLQ | very low bi-directional transport; also recorded: Low permeability | 0.864 | low, but non-zero, permeability; also recorded: Low permeability | – | – | –
2 | Cc1cc(C)[n+](C)c2c(C)cccc12 [1,2,4,8-tetraMQ] | – | – | – | – | – | – | – | – | 0.698 | – | did not significantly decrease | 109 | low, but non-zero, permeability; also recorded: Low permeability
